Values joined by “and” are separate entries in the source; they are usually repeats but may differ in a detail not shown here. Equal entries are not always repeated. Inconclusive results and toxic doses are left out. No stated cut-off is given here; in the data, active means T/C of 150% or more; inactive means T/C below 125%.
Test system: L1210 leukemia ip in BDF1 mice, survival T/C
Assay: NCI In Vivo Anticancer Drug Screen. Data for tumor model L1210 Leukemia (intraperitoneal) in B6D2F1 (BDF1) mice
Conditions: endpoint: mean survival time, higher = longer survival
Method in brief: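 Tumor was transplanted into mice, which were then dosed with test compound or vehicle alone. Survival was recorded for each group, and the treated figure was expressed relative to the control figure.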

[1] = dose: 100.0 mg/kg/injection, schedule: Q04DX003 (ip), vehicle: saline
[2] = dose: 200.0 mg/kg/injection, schedule: Q04DX003 (ip), vehicle: saline
[3] = dose: 100.0 mg/kg/injection, schedule: Q01DX009 (ip), vehicle: saline with Tween-80
[4] = dose: 100.0 mg/kg/injection, schedule: Q04DX003 (ip), vehicle: saline with Tween-80
[5] = dose: 200.0 mg/kg/injection, schedule: Q01DX009 (ip), vehicle: saline with Tween-80
[6] = dose: 200.0 mg/kg/injection, schedule: Q04DX003 (ip), vehicle: saline with Tween-80
[7] = dose: 400.0 mg/kg/injection, schedule: Q04DX003 (ip), vehicle: saline with Tween-80
[8] = dose: 100.0 mg/kg/injection, schedule: Q04DX003 (ip), vehicle: Klucel (hydroxypropylcellulose) (HPC)
[9] = dose: 200.0 mg/kg/injection, schedule: Q04DX003 (ip), vehicle: Klucel (hydroxypropylcellulose) (HPC)
[10] = dose: 400.0 mg/kg/injection, schedule: Q04DX003 (ip), vehicle: Klucel (hydroxypropylcellulose) (HPC)
[11] = dose: 25.0 mg/kg/injection, schedule: Q01DX009 (ip), vehicle: Klucel (hydroxypropylcellulose) (HPC)
[12] = dose: 100.0 mg/kg/injection, schedule: Q01DX009 (ip), vehicle: Klucel (hydroxypropylcellulose) (HPC)
[13] = dose: 200.0 mg/kg/injection, schedule: Q01DX009 (ip), vehicle: Klucel (hydroxypropylcellulose) (HPC)
[14] = dose: 400.0 mg/kg/injection, schedule: Q01DX009 (ip), vehicle: Klucel (hydroxypropylcellulose) (HPC)

Measured: T/C

O=C(O)CCNCC(=O)O
inactive: dose: 75.0 mg/kg/injection, schedule: Q01DX001 (ip), vehicle: saline 100 % of control | dose: 150.0 mg/kg/injection, schedule: Q01DX001 (ip), vehicle: saline 100 % of control | dose: 300.0 mg/kg/injection, schedule: Q01DX001 (ip), vehicle: saline 101 % of control

Nc1ncc(CBr)c(N)n1
inactive: [1] 97 % of control | [2] 96 % of control

O=C(NC(O)C(Cl)(Cl)Cl)c1ccccc1O (configuration not stated)
inactive: [3] 95 % of control | [4] 93 % of control | [5] 103 % of control | [6] 95 % of control | [7] 95 % of control

CCCCCCCCCCCCCC1=NCCN1CCO
inactive: dose: 5.0 mg/kg/injection, schedule: Q01DX009 (ip), vehicle: saline 94 % of control | dose: 10.0 mg/kg/injection, schedule: Q01DX009 (ip), vehicle: saline 96 % of control | dose: 20.0 mg/kg/injection, schedule: Q01DX009 (ip), vehicle: saline 86 % of control

Cc1c(N)nc(C(CC(N)=O)NCC(N)C(N)=O)nc1C(=O)NC(C(=O)NC(C)C(O)C(C)C(=O)NC(C(=O)NCCc1nc(-c2nc(C(=O)NCCC[S+](C)C)cs2)cs1)C(C)O)C(OC1OC(CO)C(O)C(O)C1OC1OC(CO)C(O)C(OC(N)=O)C1O)c1cnc[nH]1 (configuration not stated)
inactive: dose: 1.0 mg/kg/injection, schedule: Q01DX009 (ip), vehicle: Klucel (hydroxypropylcellulose) (HPC) 106 % of control | dose: 2.0 mg/kg/injection, schedule: Q01DX009 (ip), vehicle: Klucel (hydroxypropylcellulose) (HPC) 95 % of control | dose: 4.0 mg/kg/injection, schedule: Q01DX009 (ip), vehicle: Klucel (hydroxypropylcellulose) (HPC) 107 % of control | dose: 8.0 mg/kg/injection, schedule: Q01DX009 (ip), vehicle: Klucel (hydroxypropylcellulose) (HPC) 101 % of control

CSc1nc(Cl)cc(Sc2nc(N)nc3nc[nH]c23)n1
inactive: dose: 100.0 mg/kg/injection, schedule: Q01DX Z (ip), vehicle: methylcellulose (MC) 110 % of control

C=CS(=O)(=O)c1ccccc1Cl
inactive: [8] 104 % of control | [9] 98 % of control

c1ccc2ncccc2c1
inactive: [8] 101 % of control | [9] 95 % of control

O=c1cccccc1O.O=c1cccccc1O.O=c1cccccc1O.[Cr]
inactive: dose: 75.0 mg/kg/injection, schedule: Q04DX003 (ip), vehicle: saline 100 % of control | dose: 150.0 mg/kg/injection, schedule: Q04DX003 (ip), vehicle: saline 104 % of control | dose: 300.0 mg/kg/injection, schedule: Q04DX003 (ip), vehicle: saline 90 % of control

CCCCCCCCCCCCCCCC1=NN(c2ccccc2)C(=O)C1N=Nc1ccccc1 (configuration not stated)
inactive: [8] 102 % of control | [9] 98 % of control | [10] 94 % of control

CCCCCCCCCC(C)Cc1ccccc1 (configuration not stated)
inactive: dose: 100.0 mg/kg/injection, schedule: Q01DX001 (ip), vehicle: saline with Tween-80 100 % of control | dose: 200.0 mg/kg/injection, schedule: Q01DX001 (ip), vehicle: saline with Tween-80 100 % of control | dose: 400.0 mg/kg/injection, schedule: Q01DX001 (ip), vehicle: saline with Tween-80 92 % of control

C[n+]1ccccc1C(=O)O (tested in a mixture with another compound)
inactive: [1] 101 % of control | [2] 98 % of control

CCOC(=O)C(=CNc1ccc(OCCCOc2ccccc2)cc1)C(=O)OCC
inactive: dose: 100.0 mg/kg/injection, schedule: Q01DX001 (ip), vehicle: gum acacia 98 % of control | dose: 200.0 mg/kg/injection, schedule: Q01DX001 (ip), vehicle: gum acacia 90 % of control | dose: 400.0 mg/kg/injection, schedule: Q01DX001 (ip), vehicle: gum acacia 102 % of control

NC(Cc1ccc(O)c(O)c1)C(=O)O (configuration not stated)
inactive: dose: 100.0 mg/kg/injection, schedule: Q01DX001 (ip), vehicle: saline 93 % of control | dose: 200.0 mg/kg/injection, schedule: Q01DX001 (ip), vehicle: saline 95 % of control | dose: 400.0 mg/kg/injection, schedule: Q01DX001 (ip), vehicle: saline 97 % of control

NC(N)=NC(N)=Nc1cccc(Cl)c1
inactive: [11] 108 % of control and 88 % of control | dose: 50.0 mg/kg/injection, schedule: Q01DX009 (ip), vehicle: Klucel (hydroxypropylcellulose) (HPC) 94 % of control and 97 % of control | dose: 100.0 mg/kg/injection, schedule: Q01DX001 (ip), vehicle: Klucel (hydroxypropylcellulose) (HPC) 93 % of control | [8] 105 % of control | dose: 200.0 mg/kg/injection, schedule: Q01DX001 (ip), vehicle: Klucel (hydroxypropylcellulose) (HPC) 103 % of control

CCC(c1ccc2cc(OC)ccc2c1)C(C)(C)C(=O)O (configuration not stated)
inactive: dose: 100.0 mg/kg/injection, schedule: Q01DX001 (sc), vehicle: steriod suspending solution 112 % of control | dose: 200.0 mg/kg/injection, schedule: Q01DX001 (sc), vehicle: steriod suspending solution 95 % of control | dose: 400.0 mg/kg/injection, schedule: Q01DX001 (sc), vehicle: steriod suspending solution 101 % of control

CCOc1ccc(NC2CNC(=O)NC2=O)cc1 (configuration not stated)
inactive: dose: 200.0 mg/kg/injection, schedule: Q01DX Z (ip), vehicle: methylcellulose (MC) 91 % of control

COc1cccc(CC(C)N)c1OC (configuration not stated)
inactive: dose: 25.0 mg/kg/injection, schedule: Q04DX003 (ip), vehicle: saline 103 % of control | dose: 50.0 mg/kg/injection, schedule: Q04DX003 (ip), vehicle: saline 91 % of control | [1] 101 % of control

C#CC1(OCC(O)CO)CCCCC1 (configuration not stated)
inactive: dose: 25.0 mg/kg/injection, schedule: Q01DX009 (ip), vehicle: water 115 % of control | dose: 50.0 mg/kg/injection, schedule: Q01DX009 (ip), vehicle: water 110 % of control | dose: 100.0 mg/kg/injection, schedule: Q01DX009 (ip), vehicle: water 100 % of control | dose: 200.0 mg/kg/injection, schedule: Q01DX009 (ip), vehicle: water 97 % of control

CCCCCCCCCC(O)CCC (configuration not stated)
inactive: [12] 103 % of control | [8] 96 % of control | [13] 109 % of control | [9] 91 % of control | [14] 103 % of control | [10] 89 % of control

Cc1c2oc3c(C)ccc(C(=O)OCCN4CCCCC4)c3nc-2c(C(=O)OCCN2CCCCC2)c(N)c1=O
inactive: dose: 100.0 mg/kg/injection, schedule: Q04DX002 (ip), vehicle: saline with Tween-80 113 % of control | dose: 200.0 mg/kg/injection, schedule: Q04DX002 (ip), vehicle: saline with Tween-80 98 % of control

COC(=O)C1=NNC(c2ccc(OC)cc2)C1 (configuration not stated)
inactive: dose: 100.0 mg/kg/injection, schedule: Q01DX001 (ip), vehicle: steriod suspending solution 115 % of control | dose: 200.0 mg/kg/injection, schedule: Q01DX001 (ip), vehicle: steriod suspending solution 97 % of control | dose: 400.0 mg/kg/injection, schedule: Q01DX001 (ip), vehicle: steriod suspending solution 103 % of control

CCOC(OCC)c1c(Cl)cccc1Cl
inactive: [3] 98 % of control | [4] 99 % of control | [5] 88 % of control | [6] 93 % of control | dose: 400.0 mg/kg/injection, schedule: Q01DX009 (ip), vehicle: saline with Tween-80 101 % of control | [7] 93 % of control

CCOC(=O)C1CC2C=CC1C2 (configuration not stated)
inactive: [12] 106 % of control | [8] 111 % of control | [13] 101 % of control | [9] 100 % of control | [14] 103 % of control | [10] 105 % of control

Clc1c(Cl)c([O][Sn]([c]2ccccc2)([c]2ccccc2)[c]2ccccc2)c(Cl)c(Cl)c1[O][Sn]([c]1ccccc1)([c]1ccccc1)[c]1ccccc1
inactive: dose: 3.12 mg/kg/injection, schedule: Q01DX009 (ip), vehicle: Klucel (hydroxypropylcellulose) (HPC) 108 % of control | dose: 6.25 mg/kg/injection, schedule: Q01DX009 (ip), vehicle: Klucel (hydroxypropylcellulose) (HPC) 91 % of control | [11] 90 % of control

CCCCCCCCCCCCCCCC(=O)Nc1ccc(C)cc1C
inactive: dose: 100.0 mg/kg/injection, schedule: Q04DX002 (ip), vehicle: Klucel (hydroxypropylcellulose) (HPC) 96 % of control | dose: 200.0 mg/kg/injection, schedule: Q04DX002 (ip), vehicle: Klucel (hydroxypropylcellulose) (HPC) 93 % of control | dose: 400.0 mg/kg/injection, schedule: Q04DX002 (ip), vehicle: Klucel (hydroxypropylcellulose) (HPC) 90 % of control

CC(=O)CC(=O)Nc1ccc(C)c(C)c1
inactive: dose: 100.0 mg/kg/injection, schedule: Q01DX009 (ip), vehicle: saline 102 % of control | dose: 200.0 mg/kg/injection, schedule: Q01DX009 (ip), vehicle: saline 102 % of control | dose: 400.0 mg/kg/injection, schedule: Q01DX009 (ip), vehicle: saline 93 % of control

From PubChem BioAssay AID248 (DTP/NCI, 2004)
